Measured values: ChEMBL document CHEMBL3352324, “Progress in the discovery and development of heat shock protein 90 (Hsp90) inhibitors” (J Med Chem, 2014)
Values belong to the compound of their own block, whether it stands above or below them.

Key:
[1] = Antiproliferative activity against human colon cancer cells; format: functional, cell-based; details: Cancer cell lines
[2] = Drug metabolism in human liver microsomes; format: ADME; details: read-out: Drug metabolism
HUVEC = test: Cytotoxicity against HUVEC; format: cell-based; details: Homo sapiens
[3] = Cytotoxicity against human ARPE19 cells; format: cell-based; details: ARPE-19
Heat shock protein HSP90 = Heat shock protein HSP90 (Homo sapiens, UniProt P07900+P08238); test: Inhibition of HSP90 (unknown origin); format: protein assay
MCF7 = test: Antiproliferative activity against human MCF7 cells; format: functional, cell-based
Homo sapiens = test: Toxicity in patient assessed as median survival time at 450 mg/m'2, iv administered per week; format: organism-based; details: in vivo

metabolised [2]: 90%
Compound: O=C1CCCC/C=C/CCOC(=O)c2c(O)cc(O)c(Cl)c2C1
IC50 [1]: 7.6 µM

Compound: CO[C@H]1/C=C\C=C(/C)C(=O)NC2=C(c3ccccc3)C(=O)C(NCCN(C)C)=C(C[C@@H](C)C[C@H](OC)[C@H](O)[C@@H](C)/C=C(\C)[C@@H]1OC(N)=O)C2=O (stereo in doubt)
IC50 (HUVEC): < 5 µM
IC50 [3]: < 5 µM

Compound: C[C@@H]1C[C@H]2O[C@@H]2/C=C\C=C\C(=O)Cc2c(Cl)c(O)cc(O)c2C(=O)O1 [RADICICOL]
metabolised [2]: 83%

IC50 (Heat shock protein HSP90): 0.2 µM
metabolised [2]: 47%
Compound: O=C1NCC/C=C/CCCC(C(=O)NCc2ccccc2)C(=O)Cc2c(Cl)c(O)cc(O)c21 (stereo unspecified)
IC50 [1]: 0.6 µM

Compound: O=C(O[C@@H]1Cc2c(O)cc(O)cc2O[C@@H]1c1cc(O)c(O)c(O)c1)c1cc(O)c(O)c(O)c1 [EPIGALOCATECHIN GALLATE]
IC50 (MCF7): 74 µM

Compound: CC(=O)Oc1ccc(C(=O)O[C@@H]2Cc3c(O)cc(O)cc3O[C@@H]2c2ccccc2)cc1CC=C(C)C
IC50 (MCF7): 4 µM

Compound: C=CCNC1=C2C[C@@H](C)C[C@H](OC)[C@H](O)[C@@H](C)/C=C(\C)[C@H](OC(N)=O)[C@@H](OC)/C=C\C=C(/C)C(=O)NC(=CC1=O)C2=O [TANESPIMYCIN]
MST (Homo sapiens): 232 days
